# Measured values published in PubChem BioAssay (NCI).
# “And” between values parts separate entries of the source, which are not always exact repeats. Equal entries are not always repeated.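 These data come from cells grown in 96-well plates and exposed to compound for 48 hours at five concentrations. GI50 marks 50% less growth. The concentration for full growth arrest is given as TGI.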
# Legend:
# Assay in all cases: DTP human tumour cell line panel, 48 h
# [1] = test system: BT-549 breast
# [2] = test system: CAKI-1 renal
# [3] = test system: SF-268 CNS
# [4] = test system: CCRF-CEM leukemia
# [5] = test system: T-47D breast
# [6] = test system: HOP-62 NSCLC
# [7] = test system: HOP-92 NSCLC
# [8] = test system: HT29 colon
# [9] = test system: NCI-H522 lung
# [10] = test system: HCC-2998 colon
SMILES,GI50 [1],TGI [1],GI50 [2],TGI [2],GI50 [3],TGI [3],GI50 [4],TGI [4],GI50 [5],TGI [5],GI50 [6],TGI [6],GI50 [7],TGI [7],GI50 [8],TGI [8],GI50 [9],TGI [9],GI50 [10],TGI [10]
O=C1Nc2ccc(Cl)cc2/C1=C\c1c(-c2ccc(Cl)cc2)nc2sc(C3CC3)nn12,2.52 µM,9.27 µM,1.43 µM,11.1 µM,3.21 µM,12.9 µM,19.8 µM,> 100 µM,2.41 µM,22 µM,1.75 µM,4.21 µM,2.01 µM,5.89 µM,5.61 µM,17.4 µM,4.5 µM,26.3 µM,6.94 µM,22.3 µM
O=C(Nc1ccc(Oc2ccc(F)cc2)cc1)[C@@H]1C[C@@H](Cc2ccc(F)cc2)CN1C(=O)Cn1ccnn1,11.5 µM,30 µM,11.5 µM,51.7 µM,8.55 µM,33.8 µM,5.24 µM,> 100 µM,4.32 µM,36.5 µM,12.3 µM,31.5 µM,7.54 µM,31.3 µM,4.2 µM,15 µM,5.01 µM,19.3 µM,7.17 µM,21.8 µM
O=C1CC(c2c[nH]c3ccc(F)cc23)C(=O)N1 (stereo not given),> 100 µM,> 100 µM,> 100 µM,> 100 µM,> 100 µM,> 100 µM,> 100 µM,> 100 µM,> 100 µM,> 100 µM,> 100 µM,> 100 µM,> 100 µM,> 100 µM,> 100 µM,> 100 µM,> 100 µM,> 100 µM,> 100 µM,> 100 µM
Cn1cc(/C=C\[N+](=O)[O-])c2ccccc21,34.3 µM,78.5 µM,66.8 µM,> 100 µM,> 100 µM,> 100 µM,25.2 µM,> 100 µM,55.6 µM,> 100 µM,> 100 µM,> 100 µM,30.6 µM,> 100 µM,21.4 µM,39.8 µM,> 100 µM,> 100 µM,33.2 µM,> 100 µM
c1cc(N[C@@H]2CCNC2)nc(-c2cnc3ccc(-c4cn[nH]c4)cn23)c1,3.06 µM,8.32 µM,> 47.9 µM,> 100 µM,2.18 µM,7.1 µM,3.26 µM,14.4 µM,2.04 µM,9.3 µM,6.23 µM,29.6 µM,1.38 µM,4.51 µM,12.1 µM,> 96.8 µM,0.916 µM,3.55 µM,9.95 µM,35.5 µM
CCOC(=O)CSc1cc(Cl)c(C)cc1S(=O)(=O)/N=C(/N=C/c1ccc([N+](=O)[O-])s1)NNC,20.5 µM,46.3 µM,17.6 µM,49.3 µM,29.8 µM,> 100 µM,30.3 µM,> 100 µM,12.5 µM,40.1 µM,13.3 µM,31.3 µM,13.2 µM,54.6 µM,15 µM,28.2 µM,30.2 µM,79.7 µM,–,–
Cc1ccccc1N=Nc1c(O)ccc2ccccc12,–,> 100 µM,–,> 100 µM,–,> 100 µM,–,> 100 µM,–,> 100 µM,–,> 100 µM,–,> 100 µM,–,> 100 µM,–,> 100 µM,–,–
COc1cc(/C=C/C(=O)c2cccc(-n3cc(-c4cc(OC)c(OC)c(OC)c4)[nH]c3=O)c2)cc(OC)c1OC,1.52 µM,3.43 µM,2.89 µM,9.91 µM,2.2 µM,7.47 µM,0.275 µM,> 100 µM,3.08 µM,22.8 µM,3.08 µM,8.74 µM,–,–,1.7 µM,7.03 µM,1.05 µM,2.53 µM,1.92 µM,3.43 µM
CC(=O)OCC1OC(n2c(=S)n(-c3ccc([N+](=O)[O-])cc3)c(=O)c3ccccc32)C(OC(C)=O)C(OC(C)=O)C1OC(C)=O (stereo not given),–,26.7 µM,25.3 µM and 35.9 µM,> 100 µM,–,62.1 µM and 44.7 µM,5.11 µM and 15.4 µM,96.9 µM and > 100 µM,–,74.3 µM,–,53.7 µM and 54.7 µM,21.9 µM,> 91.6 µM and 47.4 µM,–,> 100 µM,–,45.3 µM and 33.7 µM,26.8 µM and 20.8 µM,61.4 µM and 46.6 µM
CSC1=NC(=Nc2c(C)cccc2C)C2(CCC(C(C)(C)C)CC2)N1c1ccc(Cl)cc1 (stereo not given),54.1 µM,> 100 µM,6.59 µM,> 100 µM,32.5 µM,> 100 µM,–,–,20.8 µM,> 100 µM,> 100 µM,> 100 µM,67.8 µM,> 100 µM,38 µM,> 100 µM,–,–,92.9 µM,> 100 µM
CCCCN(CCCC)C(=O)[C@H](CC)[C@@H]1CC[C@@H](C)[C@@H]([C@H](C)[C@@H](O)[C@@H](C)C(=O)[C@H](CC)C2O[C@]3(C=C[C@@H](O)[C@]4(CC[C@@](C)([C@H]5CC[C@](O)(CC)[C@H](C)O5)O4)O3)[C@H](C)C[C@@H]2C)O1 (stereo not given in full),2.73 µM,11.3 µM,1.91 µM,9.02 µM,3.17 µM,> 100 µM,3.13 µM,11.7 µM,2.34 µM,63.8 µM,3.79 µM,27.4 µM,1.2 µM,4.05 µM,2.88 µM,12.4 µM,2.08 µM,5.44 µM,2.01 µM,5.04 µM
NC(N)=N/N=C/c1c(-c2ccsc2)nc2n1CCS2,33.9 µM,78.7 µM,–,–,18.4 µM,82.2 µM,19.5 µM,54.6 µM,30 µM,66.3 µM,19.8 µM,52.8 µM,–,–,51 µM,> 100 µM,39.3 µM,> 100 µM,16 µM,31.4 µM
COc1cccc2c1-c1nc(N)c3c(OC)cccc3c1C2=O,–,> 100 µM,–,> 100 µM,–,> 100 µM,–,> 100 µM,–,> 100 µM,–,58.5 µM,–,> 100 µM,–,> 100 µM,–,> 100 µM,–,–
